In patent US10829478B2, “5-[3-[piperazin-1-yl]-3-oxo-propyl]-imidazolidine-2,4-dione derivatives as ADAMTS 4 and 5 inhibitors for treating e.g. osteoarthritis” (Galapagos NV, priority 2016, dated 2020):
Like-named read-outs stand apart in the source and are kept apart here.

Legend:
human ADAMTS4 = human ADAMTS4 (Homo sapiens (Human), UniProt O75173); assay: hADAMTS-4 TBIS-1 cleavage assay, Protocol 2; format: biochemical
human TACE = human TACE (Homo sapiens (Human), UniProt P78536); assay: biochemical
Method: Finally, the fluorescence is read on the Envision (Perkin Elmer) after an incubation of 75 min at room temperature (Excitation 485 nm, Emission 530).

human ADAMTS-5 = human ADAMTS-5 (Homo sapiens (Human), UniProt Q9UNA0); assay: hADAMTS-5 TBIS-1 cleavage assay, Protocol 3; format: biochemical; details: 90 min at 37° C., read-out: hADAMTS-5 potency IC50
Method: The reaction is initiated by adding to the assay plate TBIS-1 (10 μL, 4.5 μM, Anaspec) in the same buffer.
Finally, the fluorescence is read on the Envision (Perkin Elmer) after an incubation of 90 min at 37° C. (Excitation 485 nm, emission 530).

human ADAMTS6 = human ADAMTS6 (Homo sapiens (Human), UniProt Q9UKP5); assay: hADAMTS-6 fluorescent based protease assay (520 MMP FRET substrate XII); format: biochemical; details: 37° C. for 2 h; read-out: hADAMTS-6 potency IC50
In short: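 ADAMTS6 (0.73 nM final) in 25 mM Tris pH 8.0, 0.05% CHAPS, 2.5 mM CaCl2 with compound dilution series (top 20 μM, 1/5 steps). Reaction started with 520 MMP FRET Substrate XII, incubated 2 h at 37 °C. Substrate cleavage read by fluorescence ex485/em530; IC50 determined.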

human MMP13 = human MMP13 (Homo sapiens (Human), UniProt P45452); assay: hMMP13 assay, Protocol 2 (390 MMP FRET Substrate I, Enzo enzyme); format: biochemical; details: Protocol 2, human MMP13 (Enzo Life Sciences), read-out: hMMP-13 potency IC50
Method: Human MMP13 is preactivated by incubated the enzyme in the same buffer complemented with 1 mM freshly prepared p-Aminophenylmercuric acetate (AMPA) for 1 h at 37° C.

human MMP14 = human MMP14 (Homo sapiens (Human), UniProt P50281); assay: hMMP14 assay (390 MMP FRET Substrate I); format: biochemical; details: human MMP14 (Biomol), read-out: hMMP-14 potency IC50
Method: The basis for the assay is the cleavage of the substrate 390 MMP FRET Substrate I (Anaspec Cat #AS-27076) by human MMP14 (Biomol, Cat #SE-259).
The reaction is initiated by adding to the assay plate 390 MMP FRET Substrate I (10 μL, 2.5 μM) in the same buffer.
Finally, the fluorescence is read on the Envision (Perkin Elmer) after an incubation of 60 min at room temperature (Excitation 485 nm, Emission 530).

[1] = Protocol 2, 180 min at 37° C., read-out: ADAMTS4 potency IC50

Sequence of human ADAMTS4 (O75173 213-837): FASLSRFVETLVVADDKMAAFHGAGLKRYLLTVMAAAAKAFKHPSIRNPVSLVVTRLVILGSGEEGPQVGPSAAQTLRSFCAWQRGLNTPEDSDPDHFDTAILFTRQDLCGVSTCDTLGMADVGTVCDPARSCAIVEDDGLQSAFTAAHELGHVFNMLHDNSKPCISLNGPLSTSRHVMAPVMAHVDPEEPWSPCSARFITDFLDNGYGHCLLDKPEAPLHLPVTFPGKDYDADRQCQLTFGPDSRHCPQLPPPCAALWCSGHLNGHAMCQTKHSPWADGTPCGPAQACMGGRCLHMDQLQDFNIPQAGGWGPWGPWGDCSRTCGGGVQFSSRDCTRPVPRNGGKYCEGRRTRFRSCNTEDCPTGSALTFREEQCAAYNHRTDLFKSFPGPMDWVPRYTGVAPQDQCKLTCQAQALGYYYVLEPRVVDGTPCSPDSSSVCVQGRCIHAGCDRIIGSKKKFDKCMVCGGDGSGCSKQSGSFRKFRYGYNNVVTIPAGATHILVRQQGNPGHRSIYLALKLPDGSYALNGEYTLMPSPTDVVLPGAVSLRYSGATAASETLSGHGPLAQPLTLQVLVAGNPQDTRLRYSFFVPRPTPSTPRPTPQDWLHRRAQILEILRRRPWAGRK
Sequence of human ADAMTS-5 (Q9UNA0 262-930): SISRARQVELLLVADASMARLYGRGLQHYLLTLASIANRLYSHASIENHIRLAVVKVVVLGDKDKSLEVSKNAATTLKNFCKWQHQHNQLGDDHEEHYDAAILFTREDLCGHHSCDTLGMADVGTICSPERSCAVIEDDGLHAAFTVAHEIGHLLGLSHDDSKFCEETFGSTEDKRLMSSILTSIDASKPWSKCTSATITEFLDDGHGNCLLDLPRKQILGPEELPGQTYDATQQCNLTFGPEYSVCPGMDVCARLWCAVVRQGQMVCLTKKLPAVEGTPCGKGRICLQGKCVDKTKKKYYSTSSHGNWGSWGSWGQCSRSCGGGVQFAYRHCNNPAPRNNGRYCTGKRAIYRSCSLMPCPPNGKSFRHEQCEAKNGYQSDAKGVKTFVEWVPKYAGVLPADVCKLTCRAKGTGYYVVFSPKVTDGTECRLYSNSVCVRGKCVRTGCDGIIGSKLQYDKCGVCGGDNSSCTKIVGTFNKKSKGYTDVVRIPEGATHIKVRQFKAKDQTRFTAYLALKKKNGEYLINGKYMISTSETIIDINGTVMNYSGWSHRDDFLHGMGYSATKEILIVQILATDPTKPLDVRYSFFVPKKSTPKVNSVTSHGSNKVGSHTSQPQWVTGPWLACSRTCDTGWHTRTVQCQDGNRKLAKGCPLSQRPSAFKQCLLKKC
Sequence of human TACE (P78536 215-671): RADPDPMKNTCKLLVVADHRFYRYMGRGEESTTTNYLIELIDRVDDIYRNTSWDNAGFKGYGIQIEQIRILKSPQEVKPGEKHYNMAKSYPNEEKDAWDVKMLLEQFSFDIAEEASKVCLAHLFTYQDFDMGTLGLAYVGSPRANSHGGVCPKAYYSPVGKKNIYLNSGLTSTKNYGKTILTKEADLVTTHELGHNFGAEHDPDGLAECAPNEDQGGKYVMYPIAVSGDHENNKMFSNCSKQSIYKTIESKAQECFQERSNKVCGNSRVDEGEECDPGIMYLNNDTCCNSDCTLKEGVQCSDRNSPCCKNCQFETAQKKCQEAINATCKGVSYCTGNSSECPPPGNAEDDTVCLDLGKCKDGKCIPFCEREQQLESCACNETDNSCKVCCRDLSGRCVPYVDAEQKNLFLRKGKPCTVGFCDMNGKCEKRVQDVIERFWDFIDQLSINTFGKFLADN
Sequence of human ADAMTS6 (Q9UKP5 other isoform, or with tags, fused parts or gaps): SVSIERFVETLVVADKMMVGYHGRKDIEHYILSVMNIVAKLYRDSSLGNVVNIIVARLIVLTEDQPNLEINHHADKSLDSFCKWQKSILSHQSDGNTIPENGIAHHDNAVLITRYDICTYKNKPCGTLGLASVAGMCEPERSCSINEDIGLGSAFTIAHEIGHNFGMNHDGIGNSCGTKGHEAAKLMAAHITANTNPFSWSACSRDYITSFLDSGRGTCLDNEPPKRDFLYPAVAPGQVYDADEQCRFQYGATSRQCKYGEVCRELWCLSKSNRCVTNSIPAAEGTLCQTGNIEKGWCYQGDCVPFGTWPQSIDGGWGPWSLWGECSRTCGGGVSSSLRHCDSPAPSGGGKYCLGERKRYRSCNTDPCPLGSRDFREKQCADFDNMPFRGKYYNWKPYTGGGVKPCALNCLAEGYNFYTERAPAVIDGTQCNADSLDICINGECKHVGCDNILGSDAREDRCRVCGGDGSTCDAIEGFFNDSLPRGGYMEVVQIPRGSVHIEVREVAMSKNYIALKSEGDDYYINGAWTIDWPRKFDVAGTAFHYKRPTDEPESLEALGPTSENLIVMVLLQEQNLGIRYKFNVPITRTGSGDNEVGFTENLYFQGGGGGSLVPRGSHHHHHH

| Structure (SMILES) | IC50 (human ADAMTS4; [1]) [nM] | IC50 (human TACE) [nM] | IC50 (human ADAMTS-5) [nM] | IC50 (human ADAMTS6) [nM] | IC50 (human MMP13) [nM] | IC50 (human MMP14) [nM] | IC50 (human ADAMTS4) [nM] |
| --- | --- | --- | --- | --- | --- | --- | --- |
| COc1cc(N2CCN(C(=O)CC[C@@]3(C4CC4)NC(=O)NC3=O)C[C@@H]2C)cc(Cl)c1F [Cpd 62, (5S)-5-[3-[(3S)-4-(3-chloro-4-fluoro-5-methoxy-phenyl)-3-methyl-piperazin-1-yl]-3-oxo-propyl]-5-cyclopropyl-imidazolidine-2,4-dione] |  | > 100 | 0.001 to 25 | 0.001 to 25 | > 100 | > 100 | 50 to 100 |
| COc1cc(N2CCN(C(=O)CC[C@@]3(C)NC(=O)NC3=O)C[C@@H]2C)cc(Cl)c1F [Cpd 63, (5R)-5-[3-[(3 S)-4-(3-chloro-4-fluoro-5-methoxy-phenyl)-3-methyl-piperazin-1-yl]-3-oxo-propyl]-5-methyl-imidazolidine-2,4-dione] | > 100 | > 100 | 25 to 50 | 0.001 to 25 | > 100 | > 100 |  |
| COc1cc(N2CCN(C(=O)CC[C@@]3(C4CC4)NC(=O)NC3=O)C[C@@H]2C)cc(F)c1Cl [Cpd 65, (5S)-5-[3-[(3S)-4-(4-chloro-3-fluoro-5-methoxy-phenyl)-3-methyl-piperazin-1-yl]-3-oxo-propyl]-5-cyclopropyl-imidazolidine-2,4-dione] |  | > 100 | 0.001 to 25 | 0.001 to 25 | > 100 | > 100 | 50 to 100 |
| CCc1cc(N2CCN(C(=O)CC[C@@]3(C)NC(=O)NC3=O)CC2)ccc1Cl [Cpd 71, (5R)-5-[3-[4-(4-chloro-3-ethyl-phenyl)piperazin-1-yl]-3-oxo-propyl]-5-methyl-imidazolidine-2,4-dione] | > 100 | > 100 | > 100 | 25 to 50 | > 100 | > 100 |  |
| CCOc1cc(N2CCN(C(=O)CC[C@@]3(C)NC(=O)NC3=O)CC2)cc(OC)c1Cl [Cpd 79, (5R)-5-[3-[4-(4-chloro-3-ethoxy-5-methoxy-phenyl)piperazin-1-yl]-3-oxo-propyl]-5-methyl-imidazolidine-2,4-dione] | > 100 | > 100 | > 100 | 0.001 to 25 | > 100 | > 100 |  |
| COc1cc(N2CCN(C(=O)CC[C@@]3(C)NC(=O)NC3=O)C[C@@H]2C)cc(Cl)c1Cl [Cpd 90, (5R)-5-[3-[(3 S)-4-(3,4-dichloro-5-methoxy-phenyl)-3-methyl-piperazin-1-yl]-3-oxo-propyl]-5-methyl-imidazolidine-2,4-dione] |  | > 100 | 0.001 to 25 | 0.001 to 25 | > 100 | > 100 | 25 to 50 |
| COc1cc(Cl)cc(N2CCN(C(=O)CC[C@@]3(C)NC(=O)NC3=O)C[C@@H]2C)c1 [Cpd 96, (5R)-5-[3-[(3 S)-4-(3-chloro-5-methoxy-phenyl)-3-methyl-piperazin-1-yl]-3-oxo-propyl]-5-methyl-imidazolidine-2,4-dione] | > 100 | > 100 | > 100 | 0.001 to 25 | > 100 | > 100 |  |
| COc1cc(N2CCN(C(=O)CC[C@@]3(C)NC(=O)NC3=O)C[C@@H]2C)cc(C)c1Cl [Cpd 105, (5R)-5-[3-[(3S)-4-(4-chloro-3-methoxy-5-methyl-phenyl)-3-methyl-piperazin-1-yl]-3-oxo-propyl]-5-methyl-imidazolidine-2,4-dione] |  | > 100 | > 100 | 0.001 to 25 | > 100 | > 100 | 50 to 100 |
| CC[C@H]1CN(C(=O)CC[C@@]2(C)NC(=O)NC2=O)CCN1c1ccc(Cl)c(OC)c1 [Cpd 107, (5R)-5-[3-[(3 S)-4-(4-chloro-3-methoxy-phenyl)-3-ethyl-piperazin-1-yl]-3-oxo-propyl]-5-methyl-imidazolidine-2,4-dione] | > 100 | > 100 | > 100 | > 100 | > 100 | > 100 |  |
| COc1cc(N2CCN(C(=O)CC[C@@]3(C)NC(=O)NC3=O)CC2)cc(C)c1Cl [Cpd 112, (5R)-5-[3-[4-(4-chloro-3-methoxy-5-methyl-phenyl)piperazin-1-yl]-3-oxo-propyl]-5-methyl-imidazolidine-2,4-dione] |  | > 100 | > 100 | 0.001 to 25 | > 100 | > 100 | 50 to 100 |

Second part, led by results:

| IC50 (human ADAMTS4; [1]) [nM] | IC50 (human TACE) [nM] | IC50 (human ADAMTS-5) [nM] | IC50 (human ADAMTS6) [nM] | IC50 (human MMP13) [nM] | IC50 (human MMP14) [nM] | Structure (SMILES) | IC50 (human ADAMTS4) [nM] |
| --- | --- | --- | --- | --- | --- | --- | --- |
| > 100 | > 100 | 25 to 50 | 0.001 to 25 | > 100 | > 100 | COc1cc(N2CCN(C(=O)CCC3(c4cccc(C)n4)NC(=O)NC3=O)C[C@@H]2C)cc(F)c1F (stereo partly drawn) [Cpd 61, 5-[3-[(3S)-4-(3,4-difluoro-5-methoxy-phenyl)-3-methyl-piperazin-1-yl]-3-oxo-propyl]-5-(6-methyl-2-pyridyl)imidazolidine-2,4-dione] |  |
| > 100 | > 100 | > 100 | 0.001 to 25 | > 100 | > 100 | COc1cc(N2CCN(C(=O)CC[C@@]3(C)NC(=O)NC3=O)CC2)cc(OC)c1F [Cpd 74, (5R)-5-[3-[4-(4-fluoro-3,5-dimethoxy-phenyl)piperazin-1-yl]-3-oxo-propyl]-5-methyl-imidazolidine-2,4-dione] |  |
| > 100 | > 100 | 50 to 100 | 0.001 to 25 | > 100 | > 100 | CCc1cc(N2CCN(C(=O)CC[C@@]3(C)NC(=O)NC3=O)C[C@@H]2C)ccc1Cl [Cpd 75, (5R)-5-[3-[(3 S)-4-(4-chloro-3-ethyl-phenyl)-3-methyl-piperazin-1-yl]-3-oxo-propyl]-5-methyl-imidazolidine-2,4-dione] |  |
| > 100 | > 100 | > 100 | 0.001 to 25 | > 100 | > 100 | CCOc1cc(N2CCN(C(=O)CC[C@@]3(C)NC(=O)NC3=O)C[C@@H]2C)cc(OC)c1Cl [Cpd 80, (5R)-5-[3-[(3 S)-4-(4-chloro-3-ethoxy-5-methoxy-phenyl)-3-methyl-piperazin-1-yl]-3-oxo-propyl]-5-methyl-imidazolidine-2,4-dione] |  |
| > 100 | > 100 | > 100 | 0.001 to 25 | > 100 | > 100 | COc1cc(N2CCN(C(=O)CC[C@@]3(C)NC(=O)NC3=O)C[C@@H]2C)cc(OC)c1F [Cpd 89, (5R)-5-[3-[(3 S)-4-(4-fluoro-3,5-dimethoxy-phenyl)-3-methyl-piperazin-1-yl]-3-oxo-propyl]-5-methyl-imidazolidine-2,4-dione] |  |
| > 100 | > 100 | > 100 | 0.001 to 25 | > 100 | > 100 | COc1cc(N2CCN(C(=O)CC[C@@]3(C)NC(=O)NC3=O)C[C@@H]2C)ccc1F [Cpd 93, (5R)-5-[3-[(3 S)-4-(4-fluoro-3-methoxy-phenyl)-3-methyl-piperazin-1-yl]-3-oxo-propyl]-5-methyl-imidazolidine-2,4-dione] |  |
| > 100 | > 100 | > 100 | 0.001 to 25 | > 100 | > 100 | COc1cc(N2CCN(C(=O)CC[C@@]3(C)NC(=O)NC3=O)C[C@@H]2C)cc(N(C)C)c1Cl [Cpd 99, (5R)-5-[3-[(3S)-4-[4-chloro-3-(dimethylamino)-5-methoxy-phenyl]-3-methyl-piperazin-1-yl]-3-oxo-propyl]-5-methyl-imidazolidine-2,4-dione] |  |
| > 100 | > 100 | > 100 | 0.001 to 25 | > 100 | > 100 | CCc1cc(N2CCN(C(=O)CC[C@@]3(C)NC(=O)NC3=O)C[C@@H]2C)cc(OC)c1Cl [Cpd 106, (5R)-5-[3-[(3 S)-4-(4-chloro-3-ethyl-5-methoxy-phenyl)-3-methyl-piperazin-1-yl]-3-oxo-propyl]-5-methyl-imidazolidine-2,4-dione] |  |
| > 100 | > 100 | > 100 | > 100 | > 100 | > 100 | COc1cc(N2CCN(C(=O)CC[C@@]3(C)NC(=O)NC3=O)C[C@@H]2C(C)C)ccc1Cl [Cpd 109, (5R)-5-[3-[(3S)-4-(4-chloro-3-methoxy-phenyl)-3-isopropyl-piperazin-1-yl]-3-oxo-propyl]-5-methyl-imidazolidine-2,4-dione] |  |
| > 100 | > 100 | > 100 | 0.001 to 25 | > 100 | > 100 | CCc1cc(N2CCN(C(=O)CC[C@@]3(C)NC(=O)NC3=O)CC2)cc(OC)c1Cl [Cpd 115, (5R)-5-[3-[4-(4-chloro-3-ethyl-5-methoxy-phenyl)piperazin-1-yl]-3-oxo-propyl]-5-methyl-imidazolidine-2,4-dione] |  |
| > 100 | > 100 | > 100 | 0.001 to 25 | > 100 | > 100 | COc1cc(N2CCN(C(=O)CC[C@@]3(C)NC(=O)NC3=O)CC2C(F)(F)F)ccc1Cl (stereo partly drawn) [Cpd 118, (5R)-5-[3-[4-(4-chloro-3-methoxy-phenyl)-3-(trifluoromethyl)piperazin-1-yl]-3-oxo-propyl]-5-methyl-imidazolidine-2,4-dione] |  |
